Measurements as given in US20060205788A1, “Compounds having activity at 5ht2c receptor and uses thereof” (priority 2003, published 2006).

COc1ccc(C2=CCN(c3ccc(Cl)c(Cl)c3)C2=O)cc1OCCN1CCCCC1
melting point: 98 to 99 °C
